The values below come from patent publication EP0463456A1, “Phosphorus-containing HMG-CoA reductase inhibitors, new intermediates and their use” (E.R. SQUIBB & SONS, INC., priority 1990, dated 1992).

The target in this test is T1, Rat hepatic HMG-CoA reductase (Rattus norvegicus, UniProt P51639).
T1 construct: Livers are removed from 2-4 cholestyramine-fed, decapitated, Sprague Dawley rats, and homogenized in phosphate buffer A; from tissue; host or cells: liver microsomes of cholestyramine-fed Sprague Dawley rats
T1 sequence (P51639 1-887): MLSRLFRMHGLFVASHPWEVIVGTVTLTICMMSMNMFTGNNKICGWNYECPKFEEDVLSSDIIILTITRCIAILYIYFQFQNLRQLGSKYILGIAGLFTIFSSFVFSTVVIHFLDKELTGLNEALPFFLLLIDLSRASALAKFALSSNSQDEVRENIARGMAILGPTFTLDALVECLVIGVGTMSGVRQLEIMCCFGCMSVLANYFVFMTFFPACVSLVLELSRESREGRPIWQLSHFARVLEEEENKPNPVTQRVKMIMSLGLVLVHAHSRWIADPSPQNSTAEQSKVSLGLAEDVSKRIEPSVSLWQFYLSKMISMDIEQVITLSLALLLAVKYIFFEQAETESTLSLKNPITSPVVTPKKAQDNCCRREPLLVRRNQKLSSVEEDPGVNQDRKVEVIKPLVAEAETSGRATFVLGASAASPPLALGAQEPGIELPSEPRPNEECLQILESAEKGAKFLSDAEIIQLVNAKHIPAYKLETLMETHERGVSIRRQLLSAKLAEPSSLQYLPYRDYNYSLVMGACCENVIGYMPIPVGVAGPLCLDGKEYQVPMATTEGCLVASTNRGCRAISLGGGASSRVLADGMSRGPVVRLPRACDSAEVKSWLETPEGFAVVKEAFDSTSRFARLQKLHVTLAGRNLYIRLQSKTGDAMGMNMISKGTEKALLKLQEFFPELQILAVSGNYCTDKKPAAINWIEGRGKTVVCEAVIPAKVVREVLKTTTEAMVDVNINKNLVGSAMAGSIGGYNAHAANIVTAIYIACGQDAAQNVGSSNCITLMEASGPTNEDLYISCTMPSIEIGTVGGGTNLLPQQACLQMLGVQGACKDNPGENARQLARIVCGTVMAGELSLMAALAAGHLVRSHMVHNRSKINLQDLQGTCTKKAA
Briefly: Rat Hepatic HMG-CoA Reductase test (conversion of 14C-HMG-CoA to 14C-mevalonic acid by rat hepatic microsomes). The settings on record: concentration producing 50% inhibition of enzyme activity, 100 µM HMG-CoA, 20 minutes at 37° C, read-out: Reductase 150. Format: biochemical. Here is the method: 1) Rat Hepatic HMG-CoA Reductase
Rat hepatic HMG-CoA reductase activity is measured using a modification of the method described by Edwards (Edwards, P.A., et al., J. Lipid Res. 20:40, 1979). Rat hepatic microsomes are used as a source of enzyme, and the enzyme activity is determined by measuring the conversion of the ^14C-HMG-CoA substrate to 14C-mevalonic acid.
a. Preparation of Microsomes
Livers are removed from 2-4 cholestyramine-fed, decapitated, Sprague Dawley rats, and homogenized in phosphate buffer A (potassium phosphate, 0.04 M, pH 7.2; KCI, 0.05 M; sucrose, 0.1 M; EDTA, 0.03 M; aprotinin, 500 KI units/ml). The homogenate is spun at 16,000 x g for 15 minutes at 4°C. The supernatant is removed and recentrifuged under the same conditions a second time. The second 16,000 x g supernatant is spun at 100,000 x g for 70 minutes at 4° C. Pelleted microsomes are resuspended in a minimum volume of buffer A (3-5 ml per liver), and homogenized in a glass/glass homogenizer. […]
Standardized assays for the evaluation of inhibitors are conducted according to the following procedure. […] The first 0.5 ml is discarded, and the next 1.5 ml is collected and counted for both tritium and carbon 14 in 10.0 ml Opti-fluor scintillation fluid. Results are calculated as nmoles mevalonic acid produced per 20 minutes, and are corrected to 100% recovery of tritium. […]

As for “(S)-4-[[[4-(4-Fluorophenyl)-1,2-bis(1-methylethyl)-5-phenyl-1H-pyrrol-3-yl]-ethynyl]hydroxyphosphinyl]-3-hydroxybutanoic acid, dilithium salt [SQ 34,346]”, the IC50 came out at 0.6 nM.
